# Source: patent US8853188B2, “Compositions and methods for cancer treatment” (Women and Infants Hospital of RI, Inc., priority 2005, dated 2014)
# Tests used:
# [1] = tested on: IMR-32 cells; assay: Apoptosis in apoptosis-resistant NB cells; format: cell-based; conditions: IMR-32; data not shown
# Procedure: (§1) NB is characterized with defective apoptotic pathways. […] Neuronal (N-) type SH-SY5Y and IMR-32 cells, and stromal (S-) type SMS-KCNR cells which are resistant to apoptosis were used. […] A defect in caspase-8 or its activation causes resistance to apoptosis and in turn to chemotherapy in all these cells. On the other hand, these cells carry intact intrinsic apoptotic pathway, and executioner caspase-3 is activated by caspase-9 route.
# (§2) In depth studies were carried out to assess the activation of intrinsic and extrinsic apoptotic pathways. […] Caspase-9 was activated by B3CD in these cells (FIG. 10B), indicating an active role of intrinsic pathway of apoptosis. […] However, caspase-8 was undetectable in IMR-32 and SH-SY5Y cells.
# (§3) Although caspase-8 was detected in SMS-KCNR cells, it was not activated by B3CD (FIG. 10D). Actin immunoblotting was used as loading control in the above studies (data not shown).
# [2] = tested on: SMS-KCNR cells; assay: Apoptosis in apoptosis-resistant NB cells; format: cell-based; conditions: data not shown
# Procedure: as §1, §2, §3
# [3] = tested on: IMR-32 cells; assay: Proliferation of apoptosis-resistant NB cells; format: cell-based; conditions: data not shown
# [4] = tested on: Human umbilical vein endothelial cells (HUVEC); assay: Endothelial cell viability / proliferation assay; format: cell-based; conditions: 25-400 nM, 24 hours
# Procedure: (§4) Human umbilical vein endothelial cells (HUVEC) were treated with B3CD (25, 50, 100, 200 and 400 nM) for 24 hours and proliferation was measured as before. Vehicle and CD treated controls were used in each experiment. […] Following the treatment with B3CD, the endothelial cells were rounded up and floated, showing indications of apoptosis similar to NB.
# [5] = tested on: Human umbilical vein endothelial cells (HUVEC); assay: Endothelial cell BrdU incorporation assay; format: cell-based; conditions: 25-400 nM, 24 hours
# Procedure: as §4
# [6] = mouse, in vivo
# Procedure: FIG. 6A. In vivo studies to determine apparent systemic toxicity of B3CD. Mice were injected with the specified amounts of B3CD (i.p.) once in 48 hr for 28 days. The animals were weighed to assess the effect of B3CD on change in body weight.
# FIG. 6B. At the end of the experiment (6A) mice were sacrificed and blood collected to estimate serum calcium as a measure of hypercalcemia.
# A major concern was the potential systemic toxicity of B3CD due to hypercalcemia since B3CD (FIG. 1) is a derivative of calcidiol, which is a family member of calcitriol (Schmidt-Gayk H, Bouillon R, Roth H J. Measurement of vitamin D and its metabolites (calcidiol and calcitriol) and their clinical significance. Scand J Clin Lab Invest Suppl. 1997; 227:35-45). Therapeutic doses of calcitriol lead to increased serum calcium and consequently death; therefore, hypercalcemia is a hallmark of lethality of pharmacologic doses of calcitriol. In the event that further testing in vivo might show lethal calcemic side effects, preliminary studies were carried out to determine any overt toxic effects in a murine model.
# The effect of B3CD on serum calcium levels in SCID mice was tested. These studies were carried out in Boston University School of Medicine, Boston, Mass., in accordance with institutional guidelines. B3CD, calcidiol and calcitriol were formulated in 80% polyethylene glycol in PBS and were administered as i.p. injections once in 48 hours for 28 days. Animals were euthanized, sera collected and analyzed immediately for serum calcium in the hospital core facility. The animals were divided into 4 groups of 5 animals each.
# [7] = tested on: SK-N-SH cells; assay: DNA laddering by agarose gel electrophoresis; format: cell-based; conditions: 250 nM, 48 hours
# Procedure: (§5) Initially, during regular microscopic examination of the B3CD treated cells, the cells were condensing and floating in the culture dishes showing indications of apoptosis. In order to determine apoptosis, SK-N-SH and SH-SY5Y cells were treated with 250 nM B3CD for 48 hours. DNA was isolated and analyzed by agarose gel electrophoresis.
# [8] = tested on: SH-SY5Y cells; assay: DNA laddering by agarose gel electrophoresis; format: cell-based; conditions: 250 nM, 48 hours
# Procedure: as §5
# [9] = tested on: neuroblastic cells; assay: Apoptosis (DNA fragmentation, Cell Death Detection ELISA), FIG. 4A; format: cell-based
# Procedure: Materials and methods. Proliferation was measured by MTS and BrdU incorporation assays. Apoptosis was assessed by DNA fragmentation, Cell Death Detection ELISA and caspase-3-assays. Effect of B3CD on TrkB signaling by BDNF was assessed by Western Blot analysis of AKT and ERK phosphorylation. The effect on angiogenesis was determined by chick chorioallantoic membrane (CAM) assay and aortic ring assay.
# B3CD was tested on the panel of cell described above. […] Such cell-type specificity is not uncommon. […] However, keratinocytes were not affected by B3CD (FIG. 4A; Lane-2). In addition, caspase-3 activity was increased by B3CD (FIG. 4B). These studies indicated an underlying apoptotic mechanism in the anticancer activity of B3CD.
# [10] = tested on: SK-N-SH cells; assay: Proliferation by BrdU incorporation assay; format: cell-based; conditions: 0-800 nM, 48 hours
# Procedure: SK-N-SH and SH-SY5Y neuroblastic cells were treated with increasing doses of calcidiol or B3CD (0, 25, 50, 100, 200, 400 and 800 nM) for 48 hours. Cell viability was assessed by MTS assay and proliferation was determined by BrdU incorporation assay.
# [11] = tested on: Caspase-9; assay: Caspase-9 immunoblot in NB cells; format: cell-based; conditions: SMS-KCNR, IMR-32 and SH-SY5Y cells
# Procedure: FIG. 10B. Caspase-9 immunoblot.
# as §2
# [12] = tested on: endothelial cells; assay: Apoptosis in endothelial cells (DNA fragmentation); format: cell-based
# Description: Apoptosis in EC by B3CD was studied by DNA fragmentation and caspase-3 activation analyses as before.
smiles,measurement,setting,value
"C=C1CC[C@H](OC(=O)CBr)C/C1=C/C=C1\CCC[C@]2(C)[C@@H]([C@H](C)CCCC(C)(C)O)CC[C@@H]12 [B3CD, bromoacetic acid 3-{2-[1-(5-hydroxy-1,5-dimethyl-hexyl)-7a-methyl-octahydro-inden-4-ylidene]-ethylidene}-4-methylene-cyclohexyl ester]",induction of apoptosis,[1],induced apoptosis
same,induction of apoptosis,[2],induced apoptosis
same,inhibition of proliferation,[3],dose dependent inhibition of proliferation
same,proliferation of EC,[4],strongly inhibited the proliferation
same,viability of EC,[4],dose dependent decrease in viability
same,BrdU incorporation,[5],strongly inhibited BrdU incorporation
same,"clinical signs (lethargy, tolerance to handling, mobility)",[6],showed no such signs
same,toxicity in murine models,[6],no toxicity
same,DNA laddering,[7],distinct DNA laddering pattern characteristic of apoptosis
same,DNA laddering,[8],distinct DNA laddering pattern characteristic of apoptosis
same,DNA laddering (apoptosis),[9],distinct DNA laddering characteristic of apoptosis
same,induction of apoptosis,[9],induced rapid apoptosis
same,"proliferation, BrdU incorporation",[10],strong inhibition of proliferation
same,caspase-9 activation (immunoblot),[11],activated
same,DNA fragmentation,[12],DNA fragmentation characteristic of apoptosis
same,induction of apoptosis,[12]; data not shown,induced apoptosis
